This is an account of results in patent publication US8748426B2, “Inhibitors of diacylglycerol acyl transferase” (Piramal Enterprises Limited, priority 2009, dated 2014).

The target of this assay is T1, hDGAT1 (Homo sapiens, UniProt O75907).
T1 sequence (O75907 1-488): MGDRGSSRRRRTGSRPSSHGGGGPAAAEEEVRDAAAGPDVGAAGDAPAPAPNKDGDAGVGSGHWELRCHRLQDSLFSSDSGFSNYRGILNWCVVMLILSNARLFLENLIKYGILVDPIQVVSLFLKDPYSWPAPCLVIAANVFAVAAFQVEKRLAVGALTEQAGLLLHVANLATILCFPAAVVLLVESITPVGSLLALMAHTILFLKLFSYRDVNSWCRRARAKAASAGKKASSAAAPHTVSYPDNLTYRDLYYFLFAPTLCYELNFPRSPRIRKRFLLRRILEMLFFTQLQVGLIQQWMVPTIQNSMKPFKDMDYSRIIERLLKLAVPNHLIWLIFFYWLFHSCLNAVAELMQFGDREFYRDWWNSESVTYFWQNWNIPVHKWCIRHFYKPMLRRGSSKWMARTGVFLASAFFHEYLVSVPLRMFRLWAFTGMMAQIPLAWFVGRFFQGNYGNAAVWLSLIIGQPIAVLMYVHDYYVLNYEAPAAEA
Kind of assay: In-vitro DGAT1 assay (14C oleoyl CoA, hDGAT1 microsomes from Sf9 cells). The settings on record: read-out: % Inhibition of hDGAT1.
For orientation: inhibition means the share of the control response that was lost under treatment. Take `CC(C)[C@@H](C(=O)O)N1Cc2ccc(-c3ccc(NC(=S)Nc4cccc(C#N)c4)cc3)cc2C1=O` [Example 70, (S)-2-(6-(4-(3-(3-Cyanophenyl)thioureido)phenyl)-1-oxoisoindolin-2-yl)-3-methylbutanoic acid]: the inhibition at 1 µM was in the range of 10 to 50%.

With `Cc1ccccc1NC(=S)Nc1ccc(-c2ccc3c(c2)C(=O)N([C@H](C(=O)O)C(C)C)C3)cc1` [Example 72, (S)-3-Methyl-2-(1-oxo-6-(4-(3-o-tolylthioureido)phenyl)isoindolin-2-yl)butanoic acid], the inhibition at 1 µM was above 50%.

For `COc1ccccc1NC(=S)Nc1ccc(-c2ccc3c(c2)C(=O)N([C@H](C(=O)O)C(C)C)C3)cc1` [Example 74, (S)-2-(6-(4-(3-(2-Methoxyphenyl)thioureido)phenyl)-1-oxoisoindolin-2-yl)-3-methylbutanoic acid], the inhibition at 1 µM was in the range of 10 to 50%.

Regarding `CC(C)[C@@H](C(=O)O)N1Cc2ccc(-c3ccc(NC(=S)Nc4cccc(C(F)(F)F)c4)cc3)cc2C1=O` [Example 76, (S)-3-Methyl-2-(1-oxo-6-(4-(3-(3-(trifluoromethyl)phenyl)thioureido)phenyl)isoindolin-2-yl)butanoic acid], the inhibition at 1 µM was above 50%.

Turning to `CC(C)[C@@H](C(=O)O)N1Cc2ccc(-c3ccc(NS(=O)(=O)c4ccc(C#N)cc4)cc3)cc2C1=O` [Example 80, (S)-2-(6-(4-(4-Cyanophenylsulfonamido)phenyl)-1-oxoisoindolin-2-yl)-3-methyl butanoic acid], the inhibition at 1 µM was in the range of 10 to 50%.

For `CC(C)[C@@H](C(=O)O)N1Cc2ccc(-c3ccc(NS(=O)(=O)c4ccc(F)c(F)c4)cc3)cc2C1=O` [Example 82, (S)-2-(6-(4-(3,4-Difluorophenylsulfonamido)phenyl)-1-oxoisoindolin-2-yl)-3-methylbutanoic acid], the inhibition at 1 µM fell in the range of 10 to 50%.

With `CC(C)[C@@H](C(=O)O)N1Cc2ccc(-c3ccc(NS(=O)(=O)c4ccc(F)cc4F)cc3)cc2C1=O` [Example 84, (S)-2-(6-(4-(2,4-Difluorophenylsulfonamido)phenyl)-1-oxoisoindolin-2-yl)-3-methylbutanoic acid], the inhibition at 1 µM lay in the range of 10 to 50%.

Consider `COc1ccc(S(=O)(=O)Nc2ccc(-c3ccc4c(c3)C(=O)N([C@H](C(=O)O)C(C)C)C4)cc2)cc1OC` [Example 86, (S)-2-(6-(4-(3,4-Dimethoxyphenylsulfonamido)phenyl)-1-oxoisoindolin-2-yl)-3-methylbutanoic acid], for which the inhibition at 1 µM was 10 to 50%.

`COc1ccc(S(=O)(=O)Nc2ccc(-c3ccc4c(c3)C(=O)N([C@H](C(=O)O)C(C)C)C4)cc2)cc1` [Example 90, (S)-2-(6-(4-(4-Methoxyphenylsulfonamido)phenyl)-1-oxoisoindolin-2-yl)-3-methylbutanoic acid]: the inhibition at 1 µM fell in the range of 10 to 50%.

Turning to `CC(C)[C@@H](C(=O)O)N1Cc2ccc(-c3ccc(NS(=O)(=O)c4ccc(C(F)(F)F)cc4)cc3)cc2C1=O` [Example 92, (S)-3-Methyl-2-(1-oxo-6-(4-(4-(trifluoromethyl)phenylsulfonamido)phenyl)isoindolin-2-yl)butanoic acid], the inhibition at 1 µM fell in the range of 10 to 50%.

On to `CC(C)[C@@H](C(=O)O)N1Cc2ccc(-c3ccc(NS(=O)(=O)Cc4ccccc4)cc3)cc2C1=O` [Example 94, (S)-3-Methyl-2-(1-oxo-6-(4-(phenylmethylsulfonamido)phenyl)isoindolin-2-yl)butanoic acid], for which the inhibition at 1 µM was in the range of 10 to 50%.

On to `CC(C)[C@@H](C(=O)O)N1Cc2ccc(-c3ccc(NS(=O)(=O)C(C)C)cc3)cc2C1=O` [Example 96, (S)-3-Methyl-2-(6-(4-(1-methylethylsulfonamido)phenyl)-1-oxoisoindolin-2-yl)butanoic acid], for which the inhibition at 1 µM lay in the range of 10 to 50%.

For `CC(C)[C@@H](C(=O)O)N1Cc2ccc(-c3ccc(NC(=O)c4ccccc4)cc3)cc2C1=O` [Example 98, (S)-2-(6-(4-Benzamidophenyl)-1-oxoisoindolin-2-yl)-3-methylbutanoic acid], the inhibition at 1 µM lay within 10 to 50%.

Regarding `CC(C)[C@@H](C(=O)O)N1Cc2ccc(-c3ccc(NC(=O)c4ccc(F)cc4)cc3)cc2C1=O` [Example 100, (S)-2-(6-(4-(4-Fluorobenzamido)phenyl)-1-oxoisoindolin-2-yl)-3-methylbutanoic acid], the inhibition at 1 µM was above 50%.

For the compound `CC(C)[C@@H](C(=O)O)N1Cc2ccc(-c3ccc(NC(=O)c4ccc(C(F)(F)F)cc4)cc3)cc2C1=O` [Example 102, (S)-3-Methyl-2-(1-oxo-6-(4-(4-(trifluoromethyl)benzamido)phenyl)isoindolin-2-yl)butanoic acid], the inhibition at 1 µM is above 50%.

On to `COc1ccc(C(=O)Nc2ccc(-c3ccc4c(c3)C(=O)N([C@H](C(=O)O)C(C)C)C4)cc2)cc1` [Example 104, (S)-2-(6-(4-(4-Methoxybenzamido)phenyl)-1-oxoisoindolin-2-yl)-3-methyl butanoic acid], for which the inhibition at 1 µM is above 50%.

In the case of `CC(C)[C@@H](C(=O)O)N1Cc2ccc(-c3ccc(NC(=O)c4cccc(F)c4)cc3)cc2C1=O` [Example 106, (S)-2-(6-(4-(3-Fluorobenzamido)phenyl)-1-oxoisoindolin-2-yl)-3-methylbutanoic acid], the inhibition at 1 µM was above 50%.

On to `CC(C)[C@@H](C(=O)O)N1Cc2ccc(-c3ccc(NC(=O)c4cccc(Cl)c4)cc3)cc2C1=O` [Example 108, (S)-2-(6-(4-(3-Chlorobenzamido)phenyl)-1-oxoisoindolin-2-yl)-3-methylbutanoic acid], for which the inhibition at 1 µM is above 50%.

`CC(C)[C@@H](C(=O)O)N1Cc2ccc(-c3ccc(NC(=O)c4ccc(F)cc4F)cc3)cc2C1=O` [Example 110, (S)-2-(6-(4-(2,4-Difluorobenzamido)phenyl)-1-oxoisoindolin-2-yl)-3-methyl butanoic acid]: the inhibition at 1 µM was above 50%.

On to `Cc1ccc(C(=O)Nc2ccc(-c3ccc4c(c3)C(=O)N([C@H](C(=O)O)C(C)C)C4)cc2)cc1` [Example 112, (S)-3-Methyl-2-(6-(4-(4-methylbenzamido)phenyl)-1-oxoisoindolin-2-yl)butanoic acid], for which the inhibition at 1 µM is above 50%.

For `CC(C)[C@@H](C(=O)O)N1Cc2ccc(-c3ccc(NC(=O)c4ccc(Cl)cc4)cc3)cc2C1=O` [Example 114, (S)-2-(6-(4-(4-Chlorobenzamido)phenyl)-1-oxoisoindolin-2-yl)-3-methylbutanoic acid], the inhibition at 1 µM is above 50%.

Regarding `CC(C)[C@@H](C(=O)O)N1Cc2ccc(-c3ccc(NC(=O)C4CCCCC4)cc3)cc2C1=O` [Example 118, (S)-2-(6-(4-(Cyclohexanecarboxamido)phenyl)-1-oxoisoindolin-2-yl)-3-methylbutanoic acid], the inhibition at 1 µM is above 50%.

For `CC(C)[C@@H](C(=O)O)N1Cc2ccc(-c3ccc(NC(=O)c4ccc5ccccc5c4)cc3)cc2C1=O` [Example 122, (S)-2-(6-(4-(2-Naphthamido)phenyl)-1-oxoisoindolin-2-yl)-3-methylbutanoic acid], the inhibition at 1 µM is above 50%.

On to `CC(C)[C@@H](C(=O)O)N1Cc2ccc(-c3ccc(NC(=O)c4c(F)cccc4C(F)(F)F)cc3)cc2C1=O` [Example 126, (S)-2-(6-(4-(2-Fluoro-6-(trifluoromethyl)benzamido)phenyl)-1-oxoisoindolin-2-yl)-3-methylbutanoic acid], for which the inhibition at 1 µM lay within 10 to 50%.
